From patent publication US11293024B2, “Antisense antibacterial compounds and methods” (priority 2014, dated 2022)

Key:
[1] = test system: existing P. aeruginosa PAO1 biofilm; experiment: Biofilm reduction in MBEC plate (crystal violet); assay type: cell-based, Pseudomonas aeruginosa; conditions: at 10, 5, 2.5, and 1 μM; 2 μg/mL PMBN; 48 hour biofilm
Procedure: P. aeruginosa PAO1 (5×10^5 cfu/mL) was grown in an MBEC plate for 24 hours. At 24 hours, the pegs were moved to a new 96-well plate containing fresh MHII media and either scrambled, RpsJ, or AcpP PPMO at the indicated concentrations. All wells containing PPMOs (including Scrambled) contained 2 μg/mL of PMBN. The pegs were again moved to new plates with or without PPMOs at 32 and 40 hours. Pegs were processed for crystal violet or visualized with microscopy at 48 hours. […] FIGS. 7B-7D: Spinning Disk confocal microscopy images of 48 hour biofilm treated with (FIG. 7B) 10 μM Scr PPMO #42, (FIG. 7C) 2.5 μM AcpP PPMO #35, (FIG. 7D) 10 μM AcpP PPMO #35. Green channel is PAO1 GFP; Red channel is biofilm stained with 200 μg/mL of Concanavalin A, Alexafluor 647 conjugate.
Pseudomonas aeruginosa Biofilm Reduction in MBEC Plate Protocol
• 1. 10 mL of MH is inoculated with a single colony and incubated at 37° C. and ˜250 rpm for about 5 hours. • 2. The sample is centrifuged for 10 minutes at ˜4000 rpm at 4° C., the supernatant decanted and the pellet resuspended in 10 mL of 150 mM NaCl or PBS. This step is repeated to wash the pellet 3 times. • 3. […] The OD600 of the sample is taken and cfu/mL is calculated. […]
1. […] The final OD570 of the 10× dilution of solution should be approximately 0.500 absorbance. […]
2. OD reading: The OD570 for the 96-well plate from step 1e is determined. […]

P. aeruginosa PAO1 = experiment: Synergy assay with Piperacillin Tazobactam; assay type: cell-based, Pseudomonas aeruginosa; conditions: PPMO 32 to 0.5 μM; 2 μg/mL PMBN; 18 hours at 37° C.
Procedure: A synergy assay was performed with Piperacillin Tazobactam and AcpP PPMO #35 in P. aeruginosa PAO1. 1×10^6 cfu/mL of PAO1 was inoculated into Mueller Hinton II media in an 96-well plate in the presence of […] PMBN. Piperacillin Tazobactam (PT) was serial diluted by half dilutions in the lateral direction from 128 to 0.124 μg/mL. AcpP PPMO #35 was vertically diluted in the same manner from 32 to 0.5 μM. The 96-well plate was then incubated for 18 hours at 37° C.
A synergy assay was performed with Piperacillin Tazobactam and AcpP PPMO #35 in P. aeruginosa PAO1. 1×10^6 cfu/mL of PAO1 was inoculated into Mueller Hinton II media in an 96-well plate in the presence of 2 μg/mL PMBN. Piperacillin Tazobactam (PT) was serial diluted by half dilutions in the lateral direction from 128 to 0.124 μg/mL. AcpP PPMO #35 was vertically diluted in the same manner from 32 to 0.5 μM. The 96-well plate was then incubated for 18 hours at 37° C.

PPMO #35: AcpP PMO CTCATACCTTG, 5′ (RXR)4XB CPP, 3′ H
reduction of existing biofilm (crystal violet) [1]: statistically significant reduction of biofilm
MIC of Piperacillin Tazobactam in combination with PPMO (P. aeruginosa PAO1): decreasing MIC values as the PPMO concentration increased
